From patent US20240391965A1, “STAPLED ANTIMICROBIAL PEPTIDES (STAMPS) AND USES THEREOF” (Lytica Therapeutics, Inc., priority 2021, published 2024)
≈ marks a conversion by molar mass, not a printed value. Starred links: 1 amine or outer side, 2 acyl side, 3 side chain; linkers in the order of their positions; H or OH if unused. Positions of bridges follow the written chain, without caps; N, C: chain ends. Residues, ends and D or L forms follow the SMILES beside them. 2,2'Bipyridine(5,5'-diCH2) = c1cc(-c2ccc(C[*:2])cn2)ncc1C[*:1]; Biphenyl(4,4'-CH2)2 = c1cc(-c2ccc(C[*:2])cc2)ccc1C[*:1]; Naphthalene(2,6-diCH2) = c1cc2cc(C[*:2])ccc2cc1C[*:1]; mXylylene = c1cc(C[*:1])cc(C[*:2])c1

Key:
[1] = tested on: Klebsiella pneumoniae (K. pneumoniae); assay type: cell-based; settings: microbroth dilution, 20-24 hours at 37° C.
Method: (§1) Antimicrobial Activity Assay: The following microbroth dilution protocol was adapted from CLSI to determine the minimum inhibitory concentration (MIC) of StAMPs. Briefly, Mueller-Hinton broth (MHB) or cation-adjusted Mueller-Hinton broth (MHB II) was prepared and autoclaved. Then, a colony of bacterial cells was picked and grown overnight in broth at 37° C. and then diluted and allowed to grow again for 3-4 hours. Serial dilutions of peptide stocks in water (10 μl) were prepared using clear round-bottom polypropylene 96-well plates. Then 90 μl of bacteria in broth was added to give a final inoculum of 5×10^5 CFU/ml. The plates were then covered with porous tape to reduce evaporation and incubated for 20-24 hours at 37° C. The MIC was the minimum peptide concentration at which no visible bacterial growth was observed.

[2] = tested on: Acinetobacter baumannii (A. baumannii); assay type: cell-based; settings: microbroth dilution, 20-24 hours at 37° C.
Method: as §1

[3] = tested on: Escherichia coli (E. coli); assay type: cell-based; settings: microbroth dilution, 20-24 hours at 37° C.
Method: as §1

[4] = tested on: Staphylococcus aureus (S. aureus); assay type: cell-based; settings: microbroth dilution, 20-24 hours at 37° C.
Method: as §1

[5] = tested on: Pseudomonas aeruginosa (P. aeruginosa); assay type: cell-based; settings: microbroth dilution, 20-24 hours at 37° C.
Method: as §1

[6] = 48 hours cytotoxicity assay (CellTiter-Glo), liver toxicity; assay type: cell-based, human
Summary of the method: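 HepG2 cells in EMEM with 10% FBS, allowed to attach 4 h, then exposed to serially diluted StAMPs or vehicle for 48 h at 37 °C. Viability read by CellTiter-Glo luminescence.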

[7] = 90 minute cytotoxicity assay (LDH release), renal toxicity; assay type: cell-based
Summary of the method: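 RPTEC plated overnight, given fresh medium, then exposed to serial peptide dilutions or vehicle for 90 min at 37° C. Medium LDH measured by 10 min reagent incubation and absorbance at 490 nm.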

[8] = 48 hours of incubation, CellTiter-Glo, read-out: Inhibitory Concentration at 50% Cytotoxicity (IC50) Human Liver Cells (HepG2)

| SMILES | Minimum Inhibitory Concentration (MIC) K. pneumoniae [1] | Minimum Inhibitory Concentration (MIC) A. baumannii [2] | Minimum Inhibitory Concentration (MIC) E. coli [3] | Minimum Inhibitory Concentration (MIC) S. aureus [4] | Minimum Inhibitory Concentration (MIC) P. aeruginosa [5] | IC50 [6, 8] | IC50 [6] | IC50 [7] |
| --- | --- | --- | --- | --- | --- | --- | --- | --- |
| CC[C@H](C)[C@H](NC(=O)CN)C(=O)N[C@@H](Cc1ccccc1)C(=O)N[C@@H](CO)C(=O)N[C@@H](CCCCN)C(=O)N[C@H]1CSCc2ccc3cc(ccc3c2)CSC[C@@H](C(=O)N[C@@H](CC(C)C)C(=O)N[C@@H](CC(C)C)C(=O)N[C@H](C(=O)N[C@@H](CO)C(=O)NCC(=O)N[C@@H](CC(C)C)C(=O)N[C@@H](CCCCN)C(=O)NCC(N)=O)[C@@H](C)CC)NC(=O)[C@H](CCCCN)NC(=O)[C@H]([C@@H](C)CC)NC(=O)[C@H](CCCCN)NC(=O)[C@H](CCCCN)NC(=O)CNC(=O)[C@H](C)NC1=O [compound 64] (H-GIFSKCAGKKIKCLLISGLKG-NH2; linker 6-13 via Naphthalene(2,6-diCH2)) | 16 µg/mL | 8 µg/mL | 8 µg/mL | >64 µg/mL | >64 µg/mL | 53 µg/mL (≈ 22.9 µM) |  |  |
| CC[C@H](C)[C@H](NC(=O)CN)C(=O)N[C@@H](Cc1ccccc1)C(=O)N[C@@H](CO)C(=O)N[C@@H](CCCCN)C(=O)N[C@H]1CSCc2ccc(cc2)-c2ccc(cc2)CSC[C@@H](C(=O)N[C@@H](CC(C)C)C(=O)N[C@@H](CC(C)C)C(=O)N[C@H](C(=O)N[C@@H](CO)C(=O)NCC(=O)N[C@@H](CC(C)C)C(=O)N[C@@H](CCCCN)C(=O)NCC(N)=O)[C@@H](C)CC)NC(=O)[C@H](CCCCN)NC(=O)[C@H]([C@@H](C)CC)NC(=O)[C@H](CCCCN)NC(=O)[C@H](CCCCN)NC(=O)CNC(=O)[C@H](C)NC1=O [compound 65] (H-GIFSKCAGKKIKCLLISGLKG-NH2; linker 6-13 via Biphenyl(4,4'-CH2)2; N-terminus assumed) |  |  |  |  |  |  | 13 µg/mL (≈ 5.55 µM) | 15 µg/mL (≈ 6.4 µM) |
| CC[C@H](C)[C@H](NC(=O)CN)C(=O)N[C@@H](Cc1ccccc1)C(=O)N[C@@H](CO)C(=O)N[C@@H](CCCCN)C(=O)N[C@@H](CC(C)C)C(=O)N[C@@H](C)C(=O)N[C@H]1CSCc2ccc(nc2)-c2ccc(cn2)CSC[C@@H](C(=O)N[C@H](C(=O)N[C@@H](CO)C(=O)NCC(=O)N[C@@H](CC(C)C)C(=O)N[C@@H](CCCCN)C(=O)NCC(N)=O)[C@@H](C)CC)NC(=O)[C@H](CC(C)C)NC(=O)[C@H](CC(N)=O)NC(=O)[C@H](CCCCN)NC(=O)[C@H]([C@@H](C)CC)NC(=O)[C@H](CCCCN)NC(=O)[C@H](CCCCN)NC1=O [compound 66] (H-GIFSKLACKKIKNLCISGLKG-NH2; linker 8-15 via 2,2'Bipyridine(5,5'-diCH2)) | 16 µg/mL | 4 µg/mL | 8 µg/mL | >64 µg/mL | 32 µg/mL | 75 µg/mL (≈ 31.2 µM) |  |  |
| CC[C@H](C)[C@H](NC(=O)CN)C(=O)N[C@@H](Cc1ccccc1)C(=O)N[C@@H](CO)C(=O)N[C@@H](CCCCN)C(=O)N[C@@H](CC(C)C)C(=O)N[C@H]1CSCc2ccc(cc2)-c2ccc(cc2)CSC[C@@H](C(=O)N[C@@H](CC(C)C)C(=O)N[C@H](C(=O)N[C@@H](CO)C(=O)NCC(=O)N[C@@H](CC(C)C)C(=O)N[C@@H](CCCCN)C(=O)NCC(N)=O)[C@@H](C)CC)NC(=O)[C@H](CC(N)=O)NC(=O)[C@H](CCCCN)NC(=O)[C@H]([C@@H](C)CC)NC(=O)[C@H](CCCCN)NC(=O)[C@H](CCCCN)NC(=O)CNC1=O [compound 88] (H-GIFSKLCGKKIKNCLISGLKG-NH2; linker 7-14 via Biphenyl(4,4'-CH2)2; N-terminus assumed) |  |  |  |  |  |  | 15 µg/mL (≈ 6.29 µM) | 13 µg/mL (≈ 5.45 µM) |
| CC[C@H](C)[C@H](NC(=O)CN)C(=O)N[C@@H](Cc1ccccc1)C(=O)N[C@@H](CO)C(=O)N[C@@H](CCCCN)C(=O)N[C@@H](CC(C)C)C(=O)N[C@H]1CSCc2cccc(c2)CSC[C@@H](C(=O)N[C@@H](CCCCN)C(=O)N[C@@H](CC(N)=O)C(=O)N[C@@H](CC(C)C)C(=O)N[C@@H](CC(C)C)C(=O)N[C@H](C(=O)N[C@@H](CO)C(=O)NCC(=O)N[C@@H](CC(C)C)C(=O)N[C@@H](CCCCN)C(=O)NCC(=O)NCC(=O)NCC(=O)N[C@@H](CCCCN)C(=O)O)[C@@H](C)CC)NC(=O)[C@H](CCCCN)NC(=O)[C@H](CCCCN)NC(=O)CNC1=O [compound 94] (H-GIFSKLCGKKCKNLLISGLKGGGK-OH; linker 7-11 via mXylylene; N-terminus assumed) |  |  |  |  |  |  | > 200 µg/mL | 168 µg/mL (≈ 65.8 µM) |
| CC[C@H](C)[C@H](NC(=O)CN)C(=O)N[C@@H](Cc1ccccc1)C(=O)N[C@@H](CO)C(=O)N[C@@H](CCCCN)C(=O)N[C@@H](CC(C)C)C(=O)N[C@H]1CSCc2cccc(c2)CSC[C@@H](C(=O)N[C@@H](CCCCN)C(=O)N[C@@H](CC(N)=O)C(=O)N[C@@H](CC(C)C)C(=O)N[C@@H](CC(C)C)C(=O)N[C@H](C(=O)N[C@@H](CO)C(=O)NCC(=O)N[C@@H](CC(C)C)C(=O)N[C@@H](CCCCN)C(=O)NCC(=O)N[C@@H](C)C(=O)NCC(=O)O)[C@@H](C)CC)NC(=O)[C@H](CCCCN)NC(=O)[C@H](CCCCN)NC(=O)CNC1=O [compound 95] (H-GIFSKLCGKKCKNLLISGLKGAG-OH; linker 7-11 via mXylylene; N-terminus assumed) |  |  |  |  |  |  | > 200 µg/mL | 167 µg/mL (≈ 68.5 µM) |
| CC[C@H](C)[C@H](NC(=O)CN)C(=O)N[C@@H](Cc1ccccc1)C(=O)N[C@@H](CO)C(=O)N[C@@H](CCCCN)C(=O)N[C@@H](CC(C)C)C(=O)N[C@H]1CSCc2cccc(c2)CSC[C@@H](C(=O)N[C@@H](CCCCN)C(=O)N[C@@H](CC(N)=O)C(=O)N[C@@H](CC(C)C)C(=O)N[C@@H](CC(C)C)C(=O)N[C@H](C(=O)N[C@@H](CO)C(=O)NCC(=O)N[C@@H](CC(C)C)C(=O)N[C@@H](CCCCN)C(=O)NCC(=O)N[C@@H](C)C(=O)N[C@@H](CCCCN)C(=O)O)[C@@H](C)CC)NC(=O)[C@H](CCCCN)NC(=O)[C@H](CCCCN)NC(=O)CNC1=O [compound 96] (H-GIFSKLCGKKCKNLLISGLKGAK-OH; linker 7-11 via mXylylene; N-terminus assumed) |  |  |  |  |  |  | 193 µg/mL (≈ 76.9 µM) | 153 µg/mL (≈ 61 µM) |
| CC[C@H](C)[C@H](NC(=O)CN)C(=O)N[C@@H](Cc1ccccc1)C(=O)N[C@@H](CO)C(=O)N[C@@H](CCCCN)C(=O)N[C@@H](CC(C)C)C(=O)N[C@H]1CSCc2cccc(c2)CSC[C@@H](C(=O)N[C@@H](CCCCN)C(=O)N[C@@H](CC(N)=O)C(=O)N[C@@H](CC(C)C)C(=O)N[C@@H](CC(C)C)C(=O)N[C@H](C(=O)N[C@@H](CO)C(=O)NCC(=O)N[C@@H](CC(C)C)C(=O)N[C@@H](CCCCN)C(=O)NCC(=O)O)[C@@H](C)CC)NC(=O)[C@H](CCCCN)NC(=O)[C@H](CCCCN)NC(=O)[C@H](C)NC1=O [compound 97] (H-GIFSKLCAKKCKNLLISGLKG-OH; linker 7-11 via mXylylene; N-terminus assumed) |  |  |  |  |  |  | > 200 µg/mL | > 200 µg/mL |
| CC[C@H](C)[C@H](NC(=O)CN)C(=O)N[C@@H](Cc1ccccc1)C(=O)N[C@@H](CO)C(=O)N[C@@H](CCCCN)C(=O)N[C@@H](CC(C)C)C(=O)N[C@H]1CSCc2cccc(c2)CSC[C@@H](C(=O)N[C@@H](CCCCN)C(=O)N[C@@H](CC(N)=O)C(=O)N[C@@H](CC(C)C)C(=O)N[C@@H](CC(C)C)C(=O)N[C@H](C(=O)N[C@@H](CO)C(=O)N[C@@H](C)C(=O)N[C@@H](CC(C)C)C(=O)N[C@@H](CCCCN)C(=O)NCC(=O)O)[C@@H](C)CC)NC(=O)[C@H](CCCCN)NC(=O)[C@H](CCCCN)NC(=O)CNC1=O [compound 98] (H-GIFSKLCGKKCKNLLISALKG-OH; linker 7-11 via mXylylene; N-terminus assumed) |  |  |  |  |  |  | 50 µg/mL (≈ 21.5 µM) | 28 µg/mL (≈ 12 µM) |
| CC[C@H](C)[C@H](NC(=O)CN)C(=O)N[C@@H](Cc1ccccc1)C(=O)N[C@@H](CO)C(=O)N[C@@H](CCCCN)C(=O)N[C@@H](CC(C)C)C(=O)N[C@H]1CSCc2cccc(c2)CSC[C@@H](C(=O)N[C@@H](CCCCN)C(=O)N[C@@H](CC(N)=O)C(=O)N[C@@H](CC(C)C)C(=O)N[C@@H](CC(C)C)C(=O)N[C@H](C(=O)N[C@@H](CO)C(=O)N[C@@H](C)C(=O)N[C@@H](CC(C)C)C(=O)N[C@@H](CCCCN)C(=O)NCC(=O)O)[C@@H](C)CC)NC(=O)[C@H](CCCCN)NC(=O)[C@H](CCCCN)NC(=O)[C@H](C)NC1=O [compound 99] (H-GIFSKLCAKKCKNLLISALKG-OH; linker 7-11 via mXylylene; N-terminus assumed) |  |  |  |  |  |  | 59 µg/mL (≈ 25.2 µM) | 45 µg/mL (≈ 19.2 µM) |
